In general, melting point refers to the temperature, or range, at which the solid turns liquid.

Structures are written as SMILES. Where only a bound is given, the exact number is not on record here.

Data set [1] has as its target T1, human CB1 (hCB1) receptor (Homo sapiens, UniProt P21554).
T1 construct: expressed in transfected cells; host or cells: CHO-K1
The data set is described as follows: Inhibition of forskolin-activated cAMP production upon activation of hCB1 (HTRF), CHO-K1 cells. The data set is classed as cell-based. Particulars: forskolin-activated cAMP, pEC50=-log(EC50); for EC50: CB1 pEC50, hCB1-CHO-K1 cells. Put shortly:
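CHO-K1 cells stably expressing hCB1 (20,000/well) were in HBSS stimulation buffer (1 mM IBMX, 10 mM MgCl2, 0.1% BSA, pH 7.4), with 6 μM forskolin in the compound buffer, 30 min at room temperature in the dark. cAMP was read as HTRF 665/620 ratio, normalized to DMSO and CP55490. Outputs were pEC50 and inhibition at 10 μM relative to CP55490.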
On the technique in general: cAMP levels reflect the balance of adenylyl cyclase and phosphodiesterase activity.

In data set [2] the target is T2, human CB2 (hCB2) receptor (Homo sapiens, UniProt P34972).
T2 construct: expressed in transfected cells; host or cells: CHO-K1
The data set is described as follows: Inhibition of forskolin-activated cAMP production upon activation of hCB2 (HTRF), CHO-K1 cells. The class given is cell-based. Particulars: for ratio CB2 agonism over CB1 agonism: Table C-1, selectivity hCB2 over hCB1; for EC50: hCB2-CHO-K1 cells, forskolin-activated cAMP, pEC50=-log(EC50), read-out: CB2 pEC50 (converted); for ratio CB2 over CB1 agonism: Table C-3, comparison of art compounds A to E with compounds of the invention.

T2 sequence (P34972 whole entry): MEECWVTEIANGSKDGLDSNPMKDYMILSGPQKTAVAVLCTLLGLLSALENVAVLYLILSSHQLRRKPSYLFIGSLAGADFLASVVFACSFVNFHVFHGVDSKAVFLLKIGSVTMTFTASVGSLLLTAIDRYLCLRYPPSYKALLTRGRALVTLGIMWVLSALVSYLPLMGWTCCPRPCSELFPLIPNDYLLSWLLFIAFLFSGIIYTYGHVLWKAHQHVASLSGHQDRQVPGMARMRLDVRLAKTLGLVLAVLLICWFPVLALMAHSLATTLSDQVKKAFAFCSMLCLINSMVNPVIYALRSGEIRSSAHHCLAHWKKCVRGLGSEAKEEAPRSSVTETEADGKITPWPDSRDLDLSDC
T1 sequence (P21554 whole entry): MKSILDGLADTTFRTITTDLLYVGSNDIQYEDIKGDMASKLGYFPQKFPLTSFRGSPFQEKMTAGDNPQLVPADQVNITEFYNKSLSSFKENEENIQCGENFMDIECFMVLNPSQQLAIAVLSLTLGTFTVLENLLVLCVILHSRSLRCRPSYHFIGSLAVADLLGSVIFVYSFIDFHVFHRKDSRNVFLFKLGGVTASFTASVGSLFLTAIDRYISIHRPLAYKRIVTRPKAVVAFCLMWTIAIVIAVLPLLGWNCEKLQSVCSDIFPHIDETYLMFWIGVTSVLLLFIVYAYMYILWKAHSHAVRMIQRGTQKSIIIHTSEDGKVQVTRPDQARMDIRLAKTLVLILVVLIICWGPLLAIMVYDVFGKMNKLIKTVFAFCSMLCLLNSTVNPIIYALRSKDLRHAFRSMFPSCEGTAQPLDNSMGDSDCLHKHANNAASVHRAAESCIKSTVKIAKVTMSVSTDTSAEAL

`CN(C)CCCOc1cc(S(=O)(=O)c2ccc3c(c2)nc(C(C)(C)C)n3CC2CCOCC2)ccn1` [Co. No. 129] gave a melting point of 119.4 °C. This compound gave an EC50 in data set [1] of 9550 nM. In addition, in data set [2], the “ratio CB2 agonism over CB1 agonism” value is reported as 617 and the EC50 is 15.5 nM.

`CC(C)(C)c1nc2cc(S(=O)(=O)c3ccc(C(N)=O)s3)ccc2n1CC1CCOCC1` [Co. No. 73] showed a melting point of 209.4 °C. The same compound showed an EC50 in data set [1] of 117 nM. In data set [2], the “ratio CB2 agonism over CB1 agonism” value was found to be 84 and the EC50 is 1.38 nM.

Take `CC(C)(C)c1nc2cc(S(=O)(=O)c3sc(S(=O)(=O)N4CCOCC4)cc3Br)ccc2n1CC1CCOCC1` [Co. No. 65]: the melting point was found to be 230 °C. Further, the EC50 in data set [1] was over 10000 nM. In data set [2], the “ratio CB2 agonism over CB1 agonism” value is on record as over 3388 and the EC50 was 2.95 nM.

Turning to `CC(C)(C)c1nc2cc(S(=O)(=O)c3ccnc(F)c3)ccc2n1C[C@H]1CC[C@H](O)CC1` [Co. No. 146], the melting point came out at 163.6 °C. In addition, the EC50 in data set [1] is over 10000 nM. Further, in data set [2], the “ratio CB2 agonism over CB1 agonism” value is reported as over 3981 and the EC50 was 2.51 nM.

`CC(C)(C)c1nc2cc(S(=O)(=O)c3coc(C4OCCO4)c3)ccc2n1CC1CCOCC1` [Co. No. 55]: the melting point was determined as 141 °C. Besides, the EC50 in data set [1] is 832 nM. In addition, in data set [2], the “ratio CB2 agonism over CB1 agonism” value worked out at 363 and the EC50 was 2.29 nM.

`CC(=O)Nc1ccc(S(=O)(=O)c2ccc3c(c2)nc(C(C)(C)C)n3CC2CCOCC2)nn1` [Co. No. 101] came in with a melting point of 290.1 °C. This compound also gave an EC50 in data set [1] of 148 nM. Moreover, in data set [2], the “ratio CB2 agonism over CB1 agonism” value is given as 58 and the EC50 is 2.51 nM.

For `COc1ccc(S(=O)(=O)c2ccc3c(c2)nc(C(C)(C)C#N)n3CC2CCOCC2)nn1` [Co. No. 92], the melting point came out at 161.1 °C. In data set [1], the EC50 is 2950 nM. Also, in data set [2], the “ratio CB2 agonism over CB1 agonism” value is given as 437 and the EC50 was 6.92 nM.

`COCCNC(=O)c1ccc(S(=O)(=O)c2ccc3c(c2)nc(C(C)(C)C)n3CC2CCCCC2)nc1` [Co. No. 37]: the melting point was 206 to 207 °C. The compound further showed an EC50 in data set [1] of over 10000 nM. In data set [2], the “ratio CB2 agonism over CB1 agonism” value was over 10839 and the EC50 is 0.933 nM.

`CC(C)(C)c1nc2cc([S+]([O-])c3ccncc3Br)ccc2n1CC1CCOCC1` (stereo not shown) [Co. No. 88]: the melting point amounted to 184.7 °C. In addition, the EC50 in data set [1] is 1260 nM. Besides, in data set [2], the “ratio CB2 agonism over CB1 agonism” value is 537 and the EC50 is 2.34 nM.

As for `CC(C)(C)c1nc2cc(S(=O)(=O)c3ccn(CC(F)(F)F)c(=O)c3)ccc2n1CC1CCOCC1` [Co. No. 97], the melting point stood at 152.9 °C. In addition, in data set [1], the EC50 is 3890 nM. For the same compound, in data set [2], the “ratio CB2 agonism over CB1 agonism” value is reported as 2065 and the EC50 was 1.86 nM.

With `CC(=O)c1ccc(S(=O)(=O)c2ccc3c(c2)nc(C(C)(C)C)n3CC2CCOCC2)s1` [Co. No. 40], the melting point is 151 °C. Besides, in data set [1], the EC50 was 209 nM. In data set [2], the “ratio CB2 agonism over CB1 agonism” value is on record as 193 and the EC50 is 1.07 nM.

For the compound `COC(=O)c1ccc(S(=O)(=O)c2ccc3c(c2)nc(C(C)(C)C)n3CC2CCOCC2)nc1` [Co. No. 30], the melting point lay in the range of 195 to 197 °C. In addition, the EC50 in data set [1] is 5250 nM. In addition, in data set [2], the “ratio CB2 agonism over CB1 agonism” value was determined as 3055 and the EC50 is 1.7 nM.

With `CC(C)(C)c1nc2cc(S(=O)(=O)c3nccc(C(N)=O)n3)ccc2n1CC1CCOCC1` [Co. No. 29], the melting point was 220 to 222 °C. The compound also had an EC50 in data set [1] of 1320 nM. In data set [2], the “ratio CB2 agonism over CB1 agonism” value came to 417 and the EC50 was 3.16 nM.

`CC(=O)N1CCC(Cn2c(C(C)(C)C)nc3cc(S(=O)(=O)c4cnn(C)c4)ccc32)CC1` [Co. No. 168] had a melting point of 166.2 °C. Further, in data set [1], the EC50 was over 10000 nM. In data set [2], the “ratio CB2 agonism over CB1 agonism” value is listed as over 1230 and the EC50 is 8.13 nM.

In turn, `CC(C)(C)c1nc2cc(S(=O)(=O)c3ccc(C4(C)OCCO4)cn3)ccc2n1CC1CCOCC1` [Co. No. 45] showed a melting point of 191 °C. For the same compound, the EC50 in data set [1] was over 10000 nM. Besides, in data set [2], the “ratio CB2 agonism over CB1 agonism” value was over 3311 and the EC50 is 3.02 nM.

`CC(C)(C)c1nc2cc(S(=O)(=O)c3ccnc(F)c3)ccc2n1CCC1CCOCC1` [Co. No. 128] gave a melting point of 177.8 °C. Also, the EC50 in data set [1] is over 10000 nM. In data set [2], the “ratio CB2 agonism over CB1 agonism” value was over 4786 and the EC50 was 2.09 nM.

`CC(C)(C)c1nc2cc(S(=O)(=O)c3cc(O)ncc3F)ccc2n1CC1CCOCC1` [Co. No. 82] displayed a melting point of 291.8 to 294.6 °C. In addition, the EC50 in data set [1] is 1580 nM. In data set [2], the “ratio CB2 agonism over CB1 agonism” value was determined as 407 and the EC50 was 3.89 nM.

In turn, `COCCCNc1cc(S(=O)(=O)c2ccc3c(c2)nc(C(C)(C)C)n3CC2CCOCC2)ccn1` [Co. No. 126] registered a melting point of 148.3 °C. Moreover, the “CB1 pEC50” value in data set [1] (hCB1-CHO-K1 cells) came to 6.02. Moreover, in data set [2], the “ratio CB2 agonism over CB1 agonism” value was 1129 and the EC50 is 0.851 nM.

`CC(C)(C)c1nc2cc(S(=O)(=O)c3ccc(S(C)(=O)=O)nc3)ccc2n1CC1CCCCC1` [Co. No. 27] yielded a melting point of 200 °C. For the same compound, the EC50 in data set [1] is over 10000 nM. Further, in data set [2], the “ratio CB2 agonism over CB1 agonism” value is reported as over 14125 and the EC50 is 0.708 nM.

`CCC(CC)Cn1c(C(C)(C)C)nc2cc(S(=O)(=O)c3ccnc(F)c3)ccc21` [Co. No. 147] gave a melting point of 130.9 °C. Also, in data set [1], the EC50 was over 10000 nM. In data set [2], the “ratio CB2 agonism over CB1 agonism” value is over 10471 and the EC50 is 0.955 nM.

`CC(=O)Nc1cc(S(=O)(=O)c2ccc3c(c2)nc(C(C)(C)C)n3CC2CCOCC2)ccn1` [Co. No. 22] displayed a melting point of 262.3 °C. In data set [1], this compound had an EC50 of 2000 nM. In data set [2], the “ratio CB2 agonism over CB1 agonism” value was determined as 1758, the “ratio CB2 over CB1 agonism” value is 1758 and the EC50 is 1.12 nM.

`CC(C)(C)c1nc2cc(S(=O)(=O)c3ccc(-c4ncon4)s3)ccc2n1CC1CCOCC1` [Co. No. 48]: the melting point was 199 °C. In data set [1], this compound showed an EC50 of 200 nM. Further, in data set [2], the “ratio CB2 agonism over CB1 agonism” value is recorded as 347 and the EC50 is 0.575 nM.

As to `CC(C)(C)c1nc2cc(S(=O)(=O)c3ccnc(C(N)=O)c3)ccc2n1CC1CCOCC1` [Co. No. 16], the melting point came out at 247.1 °C. In data set [1], this compound had an EC50 of 851 nM. For the same compound, in data set [2], the “ratio CB2 agonism over CB1 agonism” value turned out to be 359 and the EC50 was 2.34 nM.

For the compound `CC(C)(C)c1nc2cc(S(=O)(=O)c3ccc(S(C)(=O)=O)s3)ccc2n1CC1CCOCC1` [Co. No. 57], the melting point worked out at 216 °C. The EC50 in data set [1] is 1450 nM. Besides, the “ratio CB2 agonism over CB1 agonism” value in data set [2] (listed as 57) was 1328. Also, the EC50 in data set [2] was 1.1 nM.

`CCNS(=O)(=O)c1ccc(S(=O)(=O)c2ccc3c(c2)nc(C(C)(C)C)n3CC2CCOCC2)s1` [Co. No. 59] returned a melting point of 158 °C. The same compound had an EC50 in data set [1] of 2290 nM. In data set [2], the “ratio CB2 agonism over CB1 agonism” value came out at 2018 and the EC50 is 1.12 nM.

In turn, `CC(C)(C)c1nc2cc(S(=O)(=O)c3ccnc(F)c3)ccc2n1CC1CCC(=O)CC1` [Co. No. 134] registered a melting point of 164.8 °C. The compound further showed an EC50 in data set [1] of 3800 nM. In addition, in data set [2], the “ratio CB2 agonism over CB1 agonism” value stood at 2786 and the EC50 was 1.38 nM.

The compound `CC(C)(C)c1nc2cc(S(=O)(=O)c3ccnc(O)c3)ccc2n1CC1CCOCC1` [Co. No. 8] had a melting point of over 300 °C. The compound also had an EC50 in data set [1] of 4680 nM. Also, in data set [2], the “ratio CB2 agonism over CB1 agonism” value was 1514, the “ratio CB2 over CB1 agonism” value is reported as 1514 and the EC50 was 3.09 nM.

On to `COC(C)c1ccc(S(=O)(=O)c2ccc3c(c2)nc(C(C)(C)C)n3CC2CCOCC2)nc1` (stereo not shown) [Co. No. 49], for which the melting point is 140 °C. The same compound showed an EC50 in data set [1] of over 10000 nM. In data set [2], the “ratio CB2 agonism over CB1 agonism” value is recorded as over 2138 and the EC50 is 4.68 nM.

As to `COCCCc1cc(S(=O)(=O)c2ccc3c(c2)nc(C(C)(C)C)n3CC2CCOCC2)ccn1` [Co. No. 154], the melting point was 143.4 °C. In data set [1], this compound had an EC50 of over 10000 nM. Also, in data set [2], the “ratio CB2 agonism over CB1 agonism” value was over 9016 and the EC50 was 1.12 nM.

On to `CC(C)(C)c1nc2cc(S(=O)(=O)c3ccc(S(=O)(=O)N4CCOCC4)cn3)ccc2n1CC1CCOCC1` [Co. No. 66], for which the melting point amounted to 224 °C. Besides, in data set [1], the EC50 is over 10000 nM. Besides, in data set [2], the “ratio CB2 agonism over CB1 agonism” value was over 676 and the EC50 is 14.8 nM.

`CC(C)(C)c1nc2cc(S(=O)(=O)c3c(Cl)cncc3Cl)ccc2n1CC1CCOCC1` [Co. No. 84] displayed a melting point of 242.9 °C. In addition, the EC50 in data set [1] stood at 617 nM. For the same compound, in data set [2], the “ratio CB2 agonism over CB1 agonism” value is 490 and the EC50 was 1.26 nM.

For `CC(C)(C)c1nc2cc(S(=O)(=O)c3ccn(/C(F)=C/I)c(=O)c3)ccc2n1CC1CCOCC1` [Co. No. 90], the melting point was found to be 113.9 °C. The same compound gave an EC50 in data set [1] of over 10000 nM. For the same compound, in data set [2], the “ratio CB2 agonism over CB1 agonism” value is given as over 3715 and the EC50 was 2.69 nM.

These data come from patent publication US9284303B2, “Benzimidazole cannabinoid agonists bearing a substituted heterocyclic group” (priority 2006, dated 2016).
